From publication PMC6753678, “Fueling Open Innovation for Malaria Transmission-Blocking Drugs: Hundreds of Molecules Targeting Early Parasite Mosquito Stages” (Frontiers in Microbiology, 2019)
Like-named read-outs stand apart in the source and are kept apart here.

Assays:
HepG2 cells [1] = settings: cited from earlier work
[2] = system: P. falciparum female gametocytes; assay: P. falciparum female gametogenesis assay (Pf FGAA); settings: 1: YES; 0: NO
[3] = system: P. falciparum female gametocytes; design: method as in Miguel-Blanco et al 2017; settings: ref Miguel-Blanco et al 2017, read-out: Pf FGAA IC50, cited from earlier work
HepG2 cells [4] = assay: HepG2 cytotoxicity assay
In short: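 HepG2 cells, 2,500 per well in MEM with 10% FBS and 1% NEAA, exposed to compounds for 48 h at 37°C, 5% CO2. Viability read by fluorescence; percent inhibition relative to 50 μM doxorubicin and DMSO controls.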

[5] = system: P. falciparum late stage (stages IV-V) gametocytes; design: method as in Almela et al 2016; settings: ref Almela et al 2016, read-out: Pf GCT ATP IC50, cited from earlier work
[6] = system: P. falciparum late stage (stages IV-V) gametocytes; assay: P. falciparum late stage gametocyte ATP depletion assay (Pf GC-ATP); settings: 1: YES; 0: NO
[7] = value reported with the Pf FGAA screen, ref Miguel-Blanco et al 2017
[8] = value reported with the Pf GCT ATP screen, ref Almela et al 2016
[9] = HepG2 cytotoxicity unified across the three screens

Compound | HepG2 cytoxicity (Pf GCT ATP screen) (HepG2 cells [1]; HepG2, ref Almela et al 2016) [µM] | HepG2 cytoxicity (Pf FGAA screen) (HepG2 cells [1]; HepG2, ref Miguel-Blanco et al 2017) [µM] | Is compound selective in assay? Pf FGAA active? [2] | IC50 [3] [nM] | Unified cytotox (HepG2 cells [4]; HepG2 values of the three screens unified) [µM] | IC50 [5] [nM] | Is compound selective in assay? Pf GC-ATP active? [6] | HepG2 cytoxicity (HepG2 cells [1]; [7]) [µM] | HepG2 cytoxicity (HepG2 cells [1]; [8]) [µM] | IC50 ([3]; TCAMS screen comparison) [nM] | Unified cytotox (HepG2 cells [4]; [9]) [µM] | IC50 ([5]; TCAMS screen comparison) [nM]
COc1ccc2ccccc2c1CNCCCCCCNCc1c(OC)ccc2ccccc12.Cl [TCMDC-137915] | 3.59 | 4.22 | 0 (0: NO) | 700 | 3.90 | 250 | 1 (1: YES) |  |  |  |  | 
C#CCCOc1ccc2ccccc2c1CNCCCCCCNCc1c(OCCC#C)ccc2ccccc12 [TCMDC-137832] |  |  | 0 (0: NO) |  |  |  | 1 (1: YES) | 4.79 | 5.5 | 920 | 5.14 | 410
Br.C/C=C/C=C/C1=NCCc2cc(OCCC)ccc21 [TCMDC-137442] |  |  | 1 (1: YES) |  |  |  | 1 (1: YES) | 18.29 | 19 | 1300 | 18.64 | 750
Cc1c(Cn2ncc(N3CCC(N)CC3)c(Cl)c2=O)cccc1NC(=O)Nc1ccc(-c2ccccc2)cc1.O=C(O)C(F)(F)F [TCMDC-141931] |  |  | 1 (1: YES) |  |  |  | 1 (1: YES) | 22.90 | 14.5 | 1090 | 18.70 | 1180
Fc1ccc2[nH]c(-c3ccc(-c4ccc(CN5CCC(CCN6CCCCC6)CC5)cc4)cc3)nc2c1.O=C(O)C(F)(F)F [TCMDC-133924] |  |  | 0 (0: NO) |  |  |  | 1 (1: YES) | 3.94 | 5.3 | 1700 | 4.62 | 460
CN(C)CCCOc1ccc(CN2CCC(c3c[nH]c4ccc(NCC5CCCCC5)cc34)CC2)cc1.O=C(O)C(F)(F)F [TCMDC-140737] |  |  | 1 (1: YES) |  |  |  | 1 (1: YES) | 5.48 | 6.8 | 560 | 6.14 | 500
COc1ccc(CCNCCCCCCNCCc2ccc(-c3ccccc3)cc2)cc1OC.Cl [TCMDC-131267] |  |  | 0 (0: NO) |  |  |  | 1 (1: YES) | 6.90 | 3.25 | 1260 | 5.07 | 170
CN1CCN(CCCNCc2cccc(-c3ccc(CNCCc4ccccc4)cc3)c2)CC1 [TCMDC-140643] |  |  | 0 (0: NO) |  |  |  | 1 (1: YES) | 7.92 | 18.24 | 1910 | 13.08 | 410
FC(F)(F)c1ccc2[nH]c(-c3ccc(-c4cccc(CN5CCC(CCN6CCCCC6)CC5)c4)cc3)nc2c1.O=C(O)C(F)(F)F [TCMDC-133941] |  |  | 0 (0: NO) |  |  |  | 0 (0: NO) | 4.45 | 3.4 | 1260 | 3.93 | 510
CNCCNc1nccc(N2CCc3ncnc(Nc4ccc(OCc5cccc(F)c5)c(Cl)c4)c3C2)n1 [TCMDC-135478] |  |  | 0 (0: NO) |  |  |  | 0 (0: NO) | 5.62 | 7.16 | 1670 | 6.39 | 670
C[C@H](Cc1ccc(CCc2ccc(C[C@@H](C)NC[C@H](O)c3cccc(Cl)c3)cc2)cc1)NC[C@H](O)c1cccc(Cl)c1.Cl [TCMDC-131551] |  |  | 0 (0: NO) |  |  |  | 1 (1: YES) | 4.27 | 3.1 | 2050 | 3.68 | 270
CCN(CC)CCCn1c(N)c(-c2nc3ccccc3[nH]2)c2nc(C#N)c(C#N)nc21 [TCMDC-123680] |  |  | 0 (0: NO) |  |  |  | 1 (1: YES) | 4.27 | 8.7 | 740 | 6.48 | 140
